Measurements taken from patent publication US20250250264A1, “KIF18A INHIBITOR AND USE THEREOF” (Wuhan Humanwell Innovative Drug Research and Development …, priority 2022, published 2025).

Columns and labels:
[1] = target: recombinant protein KIF18A (kinesin domain: aa 1-467) (Homo sapiens (Human), UniProt Q8NI77); test: Assay on inhibition of KIF18A enzymatic activity (ADP-Glo); type: biochemical; conditions: KIF18A 80 nM, ATP 80 μM, 3 h at room temperature, ADP-Glo luminescence; read-out: IC50 (μM), inhibitory effects of compounds on KIF18A enzymatic activity
Chain of recombinant protein KIF18A (kinesin domain: aa 1-467) (Q8NI77 1-467): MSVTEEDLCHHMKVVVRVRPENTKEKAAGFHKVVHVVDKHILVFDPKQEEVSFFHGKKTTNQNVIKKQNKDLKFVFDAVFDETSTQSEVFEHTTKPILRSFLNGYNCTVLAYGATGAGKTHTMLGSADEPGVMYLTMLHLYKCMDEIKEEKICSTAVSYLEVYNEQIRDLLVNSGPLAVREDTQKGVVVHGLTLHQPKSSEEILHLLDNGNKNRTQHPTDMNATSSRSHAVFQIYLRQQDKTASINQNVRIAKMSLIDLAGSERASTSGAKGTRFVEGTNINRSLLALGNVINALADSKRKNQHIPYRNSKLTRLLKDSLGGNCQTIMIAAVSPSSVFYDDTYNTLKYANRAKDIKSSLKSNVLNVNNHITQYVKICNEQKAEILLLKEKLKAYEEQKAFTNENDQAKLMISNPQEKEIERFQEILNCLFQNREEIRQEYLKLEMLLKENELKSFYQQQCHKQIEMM
Chain of recombinant protein KIF18A (kinesin domain: aa 1-467) (P02550 whole entry partner, the tested form may be a part): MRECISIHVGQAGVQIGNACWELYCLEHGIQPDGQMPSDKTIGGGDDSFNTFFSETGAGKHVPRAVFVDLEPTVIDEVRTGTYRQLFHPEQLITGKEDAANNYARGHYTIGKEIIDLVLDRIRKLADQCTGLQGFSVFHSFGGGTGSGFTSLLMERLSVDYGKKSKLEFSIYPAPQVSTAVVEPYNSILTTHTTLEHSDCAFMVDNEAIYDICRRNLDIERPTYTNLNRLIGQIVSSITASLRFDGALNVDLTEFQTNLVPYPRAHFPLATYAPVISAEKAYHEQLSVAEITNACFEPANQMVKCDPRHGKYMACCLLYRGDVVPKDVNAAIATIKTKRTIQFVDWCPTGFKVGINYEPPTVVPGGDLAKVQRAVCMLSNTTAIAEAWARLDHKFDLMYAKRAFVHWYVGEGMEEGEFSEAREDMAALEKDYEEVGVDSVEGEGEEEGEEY
Chain of recombinant protein KIF18A (kinesin domain: aa 1-467) (P02554 whole entry partner, the tested form may be a part): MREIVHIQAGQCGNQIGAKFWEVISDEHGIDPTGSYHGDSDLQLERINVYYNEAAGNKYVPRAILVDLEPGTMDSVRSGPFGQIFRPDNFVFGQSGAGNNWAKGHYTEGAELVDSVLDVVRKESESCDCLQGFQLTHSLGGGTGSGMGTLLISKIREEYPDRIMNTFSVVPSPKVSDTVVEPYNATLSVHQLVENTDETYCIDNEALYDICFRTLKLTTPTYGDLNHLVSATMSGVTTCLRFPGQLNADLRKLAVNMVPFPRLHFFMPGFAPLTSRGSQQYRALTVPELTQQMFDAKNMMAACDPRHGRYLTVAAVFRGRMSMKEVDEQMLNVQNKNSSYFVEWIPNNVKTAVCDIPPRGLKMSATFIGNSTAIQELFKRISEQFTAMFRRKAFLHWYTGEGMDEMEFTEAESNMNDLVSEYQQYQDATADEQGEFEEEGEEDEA
Source text: The recombinant protein KIF18A (kinesin domain: aa 1-467) used in this assay was expressed by the Bac-to-Bac baculovirus expression system from Invitrogen, and the resulting protein was purified for use in this assay (Seki, M. et al. 2003 Nucleic Acids Res.). Quantitative detection of KIF18A enzymatic activity was completed using an ADP-Glo™ kinase assay kit (Promega Inc). Related procedures strictly followed the product instructions, which are briefly described as follows:
The reaction system consisted of a test compound, the recombinant protein KIF18A (aa 1-467), ATP (Promega Inc), and an assay buffer. The test compound was prepared into a 0.5 mM stock solution using DMSO (Sigma Inc) and then serially diluted in DMSO. The assay buffer consisted of an aqueous solution of 15 mM Tris, 10 mM MgCl2 (Sigma Inc), 0.01% Pluronic F-68 (Life Technologies Inc), 1 μM paclitaxel (Cytoskeleton Inc), 30 μg/mL porcine tubulin (Cytoskeleton Inc), and 2% DMSO. The KIF18A protein (final concentration: 80 nM) and the compound at different concentrations (1 μL) were added to the prepared assay buffer (50 μL), and the mixture was incubated at room temperature for 15 min. Then, ATP (final concentration: 80 μM) was added to the reaction mixture, and the resulting mixture was incubated at room temperature for 3 h. After the reaction was completed, 5 μL of the ADP-Glo™ reagent and 2.5 μL of the reaction mixture were added to a 384-well plate (Grenier Inc). The resulting mixture was mixed homogeneously, then sealed by an aluminum foil sealing film, and incubated at room temperature in the dark for 40 min. Finally, 10 μL of the […] was added to each reaction well, and the mixture was incubated at room temperature in the dark for 40 min. After all reactions were completed, the luminescence values of the wells were read on a microplate reader (Molecular Device_SpectraMax Id5), and the inhibition ratios were calculated. The calculation formula for the inhibition rates was as follows: inhibition rate=(1−(compound group−blank group)/(negative control group−blank group))×100%. Then, based on the inhibition rates at different compound concentrations, the IC50 value of the test compound was calculated using the GraphPad Prism 8 software.

NIH:OVCAR-3 cells = test: Assay on inhibition of OVCAR3 tumor cell proliferation (CellTiter-Glo); type: cell-based; conditions: Homo sapiens, OVCAR-3, 72 h, 3 days of drug treatment, read-out: IC50 (μM), inhibitory effects of compounds on tumor cell proliferation
Procedure: NIH:OVCAR-3 cells (ATCC, Cat No. HTB-161, purchased from Co-Bier) were seeded into a T75 culture flask and cultured in an RPMI 1640 medium containing 20% FBS for 3 days in preparation for subsequent culturing and seeding into a 96-well plate for the cell proliferation assay.
The OVCAR3 cells were seeded at a density of 3000 cells/100 μL/well into the 96-well cell plate, and then the plate was incubated in an incubator (37° C., 5% CO2) for 18 h. On the second day, drug treatment was started. Serially diluted test compound solutions (each drug starting at a concentration of 10 μM, diluted in DMSO, with a dilution ratio of 1:3, and nine gradient points for each drug) or DMSO (negative control) was added to the medium in the plate at 100 μL/well, and a blank group was set up with only medium, but no seeded cell strains. After the drug addition, the plate was incubated in the incubator for another 3 days (37° C., 5% CO2). On the fourth day, plate detection was performed. To each well, 100 μL of CellTiter-Glo reagent (Promega G9243) was added. The plate was shaken for 5 min and then left to stand at room temperature for 5 min. The chemical luminescence signal value of each well was determined using a microplate reader (PerkinElmer EnVision®2104). Cell proliferation inhibition rate=(1−(compound group−blank group)/(DMSO group−blank group))×100%. Then, the IC50 value of each compound was calculated using the GraphPad Prism 8 software.

SMILES | IC50 [1] | IC50 (NIH:OVCAR-3 cells)
Cc1cc(-c2nnc(-c3ccc(NS(=O)(=O)CCO)cc3N3CCC4(CC3)CC4)o2)nc(N2CCC(F)CC2)n1 [Example I-8, N-(4-(5-(2-(4-fluoropiperidin-1-yl)-6-methylpyrimidin-4-yl)-1,3,4-oxadiazol-2-yl)-3-(6-azaspiro [2.5]octan-6-yl)phenyl)-2-hydroxyethanesulfonamide] | 0.002 µM | 0.035 µM
Cc1cc(-c2nnc(-c3ccc(NS(=O)(=O)CCO)cc3N3CCC4(CC3)CC4)o2)nc(N2C[C@@H](F)[C@@H](F)C2)n1 [Example I-101, N-(4-(5-(2-((3S,4R)-3,4-Difluoropyrrolidin-1-yl)-6-methylpyrimidin-4-yl)-1,3,4-oxadiazol-2-yl)-3-(6-azaspiro[2.5]octan-6-yl)phenyl)-2-hydroxyethane-1-sulfonamide] | 0.008 µM | 0.26 µM
O=S(=O)(CCO)Nc1ccc(-n2cc(-c3ccnc(N4CCC(F)(F)CC4)n3)cn2)c(N2CCC3(CC2)CC3)c1 [Example I-109, N-(4-(4-(2-(4,4-Difluoropiperidin-1-yl)pyrimidin-4-yl)-1H-pyrazol-1-yl)-3-(6-azaspiro[2.5]octan-6-yl)phenyl)-2-hydroxyethane-1-sulfonamide] | 0.005 µM | 0.066 µM
Cc1cc(-c2nnc(-c3ccc(NS(=O)(=O)CCO)cc3N3CCC4(CC3)CC4)s2)nc(N2CCCC(F)(F)C2)n1 [Example I-85, N-(4-(5-(2-(3,3-Difluoropiperidin-1-yl)-6-methylpyrimidin-4-yl)-1,3,4-thiadiazol-2-yl)-3-(6-azaspiro[2.5]octan-6-yl)phenyl)-2-hydroxyethane-1-sulfonamide] | 0.022 µM | 0.284 µM
Cc1cc(-c2nnc(-c3ccc(NS(=O)(=O)CCO)cc3N3CCC4(CC3)CC4)o2)nc(N2CC3CC3C2)n1 (stereo not drawn) [Example I-86, N-(4-(5-(2-(3-azabicyclo[3.1.0]hexan-3-yl)-6-methylpyrimidin-4-yl)-1,3,4-oxadiazol-2-yl)-3-(6-azaspiro[2.5]octan-6-yl)phenyl)-2-hydroxyethane-1-sulfonamide] | 0.003 µM | 0.07 µM
Cc1cc(-c2cnn(-c3ccc(NS(=O)(=O)CCO)cc3N3CCC4(CC3)CC4)c2)nc(C2CCC(F)(F)CC2)n1 [Example I-110, N-(4-(4-(2-(4,4-Difluorocyclohexyl)-6-methylpyrimidin-4-yl)-1H-pyrazol-1-yl)-3-(6-azaspiro[2.5]octan-6-yl)phenyl)-2-hydroxyethane-1-sulfonamide] | 0.002 µM | 0.061 µM
Cc1cc(-c2nnc(-c3ccc(NS(=O)(=O)CCO)cc3N3CCC4(CC3)CC4)o2)nc(N2CC(F)(F)CC(F)(F)C2)n1 [Example I-100, N-(4-(5-(6-Methyl-2-(3,3,5,5-tetrafluoropiperidin-1-yl)pyrimidin-4-yl)-1,3,4-oxadiazol-2-yl)-3-(6-azaspiro[2.5]octan-6-yl)phenyl)-2-hydroxyethane-1-sulfonamide] | 0.01 µM | 0.115 µM
Cc1cc(-c2nnc(-c3ccc(NS(=O)(=O)CCO)cc3N3CCC4(CC3)CC4)o2)nc(OCCC(F)(F)F)n1 [Example I-27, 2-Hydroxy-N-(4-(5-(6-methyl-2-(3,3,3-trifluoropropoxy)pyrimidin-4-yl)-1,3,4-oxadiazol-2-yl)-3-(6-azaspiro[2.5]octan-6-yl)phenyl)ethane-1-sulfonamide] | 0.001 µM | 0.079 µM
O=S(=O)(CCO)Nc1ccc(-n2cc(-c3cc(C(F)F)nc(N4CCC(F)(F)CC4)c3)cn2)c(N2CCC3(CC2)CC3)c1 [Example I-107, N-(4-(4-(2-(Difluoromethyl)-6-(4,4-difluoropiperidin-1-yl)pyridin-4-yl)-1H-pyrazol-1-yl)-3-(6-azaspiro[2.5]octan-6-yl)phenyl)-2-hydroxyethane-1-sulfonamide] | 0.008 µM | 0.213 µM
